The term IC50 denotes the concentration that inhibits the measured activity by half. High values mean lower potency, low ones higher potency.

T1 sequence (P01106 whole entry): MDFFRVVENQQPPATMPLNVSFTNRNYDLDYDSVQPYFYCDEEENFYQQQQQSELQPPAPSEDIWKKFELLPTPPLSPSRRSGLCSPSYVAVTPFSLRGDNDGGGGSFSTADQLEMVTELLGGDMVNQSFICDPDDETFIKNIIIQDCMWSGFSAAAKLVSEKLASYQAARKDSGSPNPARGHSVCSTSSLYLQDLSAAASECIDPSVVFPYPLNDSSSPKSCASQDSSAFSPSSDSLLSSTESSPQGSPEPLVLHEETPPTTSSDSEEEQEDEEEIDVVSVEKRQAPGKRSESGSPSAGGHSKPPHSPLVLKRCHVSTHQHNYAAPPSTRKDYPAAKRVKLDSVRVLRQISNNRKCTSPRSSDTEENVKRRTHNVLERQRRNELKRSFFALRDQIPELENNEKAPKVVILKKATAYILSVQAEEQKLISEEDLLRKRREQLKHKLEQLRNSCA

The first test has as its target T1, c-Myc/Max/Ebox DNA (Homo sapiens, UniProt P01106).
T1 construct: his6 (cleaved yes)
As to the kind of experiment: c-Myc/Max/Ebox DNA AlphaScreen Assay. Type of test: binding. The settings on record: free c-Myc 20 nM, his6-Max 5 nM, biotinylated Ebox oligo 10 nM, 2 hour incubation. The method, then: Compounds of the invention were assayed for c-Myc/Max/EBox activity as described in the following protocol. Human his6-c-Myc and his6-Max were used with biotinylated DNA containing a single Ebox sequence (biotin[…]) purchased from MWG Operon. Free c-Myc was generated from his6-c-Myc through thrombin cleavage of the his6 tag. For 384-well plate assays, 10 μL of a 2× solution of free c-Myc (20 nM final), Ni^2+ coated Acceptor Beads (25 μg/ml final), and biotinylated Ebox oligo (10 nM final) were added to 384-well plates with a Biotek EL406 liquid handler. 50 nL of compounds from stock plates were added by pin transfer using a Janus Workstation (PerkinElmer), allowing the compounds to interact with c-Myc prior to c-Myc binding with Max. In the current assay, DMSO was not allowed to exceed 2% v/v of the assay. 10 μl of 2× master mix containing streptavidin-coated donor beads (25 μg/ml final) and his6-Max (5 nM) were added. AlphaScreen measurements were performed on an Envision plate reader (PerkinElmer) utilizing the manufacturer's protocol.
Both master mixes were made in room temperature assay buffer (50 mM HEPES, 150 mM NaCl, 0.2% w/v BSA, 0.02% w/v Tween20, 40 μg/ml glycogen, 500 μM DTT, pH 8.0, wherein both DTT and glycogen were added fresh). Alpha beads were added to respective master solutions. All subsequent steps were performed in low light conditions. Solution 1: 2× solution of components with final concentrations of c-Myc Ni-coated Acceptor Beads (25 μg/ml), and biotinylated Ebox oligo (10 nM). Solution 2: 2× solution of streptavidin-coated donor beads (25 μg/ml final) and his6-Max […]. Solution 1 was added to 384-well plate (AlphaPlate-384, PerkinElmer) with Biotek EL406 liquid handler and the plates were centrifuged very briefly. 50 nL of compounds from stock plates were added by pin transfer using a Janus Workstation. Solution 2 (10 μL) was added with the liquid handler. Plates were sealed with foil to block light exposure and prevent evaporation. Plates were very briefly centrifuged followed by 2 hour incubation. AlphaScreen measurements were performed on an Envision 2104 utilizing the manufacturer's protocol. Excitation was at 680 nm for donor bead release of singlet oxygen and emission was read with a bandpass filter from 520-620 nm. Glycogen: Roche Diagnostics #10901393001. Plate 1536: Perkin Elmer, 6004350. Plate 384: Perkin Elmer, 6005350. Nickel-His Alpha Beads: 6760619R. The data from this assay are summarized in Table 3 below (Myc/Max/DNA Activity).
A general note: Alpha assays give light when donor and acceptor beads are brought close together.
With `CC(=O)Nc1sc2c(c1-c1nc3cnccc3s1)C[C@@H](C)N[C@@H]2C` (single isomer, unassigned) [Compound 110], the IC50 is < 500 nM. Same read-out and setting: then `CC(=O)Nc1sc2c(c1-c1nc3cnccc3s1)C[C@H](C)N[C@H]2C` (single isomer, unassigned) [Compound 111], with < 500 nM.

As to `O=C(CCNC1CC(O)C1)Nc1sc2c(c1-c1nc3cnccc3s1)CCNC2` (stereo not shown) [Compound 167], the half-maximal inhibitory concentration (IC50) was < 500 nM.

With `COC(=O)CCCNCCC(=O)Nc1sc2c(c1-c1nc3cnccc3s1)CCNC2` [Compound 168], the half-inhibitory concentration (IC50) is < 500 nM. `COCC1CCCN1CCC(=O)Nc1sc2c(c1-c1nc3cnccc3s1)CCNC2` (stereo not shown) [Compound 169]: the IC50 was < 500 nM.

Turning to `O=C(CCN1CCCOCC1)Nc1sc2c(c1-c1nc3cnccc3s1)CCNC2` [Compound 170], the 50% inhibitory concentration (IC50) was < 500 nM. Consider `Cc1ccsc1CNCCC(=O)Nc1sc2c(c1-c1nc3cnccc3s1)CCNC2` [Compound 171], for which the IC50 was < 500 nM.

For the compound `O=C(CCN[C@@H]1C2CCC1NC2)Nc1sc2c(c1-c1nc3cnccc3s1)CCNC2` (stereo partly shown) [Compound 173], the concentration for half-maximal inhibition (IC50) is < 500 nM. Still for that read-out and setting: the value for `O=C(CCNCC12CC(CN1)C2)Nc1sc2c(c1-c1nc3cnccc3s1)CCNC2` [Compound 174] was < 500 nM; that for `O=C(CCNCC1CCCC1)Nc1sc2c(c1-c1nc3cnccc3s1)CCNC2` [Compound 175] was < 500 nM; that for `O=C(CCN1CCc2[nH]ncc2C1)Nc1sc2c(c1-c1nc3cnccc3s1)CCNC2` [Compound 178] was < 500 nM. Same read-out and setting: the value for `CC(C)c1nc(CNCCC(=O)Nc2sc3c(c2-c2nc4cnccc4s2)CCNC3)no1` [Compound 179] was 500 to 5000 nM; that for `Cc1nc(CNCCC(=O)Nc2sc3c(c2-c2nc4cnccc4s2)CCNC3)no1` [Compound 180] was < 500 nM; that for `O=C(CCNCc1ncon1)Nc1sc2c(c1-c1nc3cnccc3s1)CCNC2` [Compound 181] was < 500 nM. On to `Cc1nc(CN(C)CCC(=O)Nc2sc3c(c2-c2nc4cnccc4s2)CCNC3)no1` [Compound 182], for which the 50% inhibitory concentration (IC50) was in the range of 500 to 5000 nM. Turning to `Cc1ccc(CNCCC(=O)Nc2sc3c(c2-c2nc4cnccc4s2)CCNC3)s1` [Compound 185], the IC50 was < 500 nM. `Cc1ncc(CNCCC(=O)Nc2sc3c(c2-c2nc4cnccc4s2)CCNC3)s1` [Compound 186] registered a concentration for half-maximal inhibition (IC50) of 500 to 5000 nM.

For `N[C@@H]1[C@H]2CN(CCC(=O)Nc3sc4c(c3-c3nc5cnccc5s3)CCNC4)C[C@@H]12` [Compound 187], the concentration for half-maximal inhibition (IC50) is < 500 nM.

Turning to `O=C(CCNCC1CCNC1)Nc1sc2c(c1-c1nc3cnccc3s1)CCNC2` (stereo not shown) [Compound 188], the IC50 is < 500 nM. The same measure, in the same setting: then `O=C(CCNCC1CCOCC1)Nc1sc2c(c1-c1nc3cnccc3s1)CCNC2` [Compound 189], with < 500 nM; and `Cc1cc(CNCCC(=O)Nc2sc3c(c2-c2nc4cnccc4s2)CCNC3)no1` [Compound 191], with 500 to 5000 nM.

As for `C[C@@H](NCCC(=O)Nc1sc2c(c1-c1nc3cnccc3s1)CCNC2)c1cnc2ccccn12` [Compound 192], the IC50 was < 500 nM. In the case of `O=C(CCNCCN1CCNCC1)Nc1sc2c(c1-c1nc3cnccc3s1)CCNC2` [Compound 193], the IC50 was < 500 nM. The same measure, in the same setting: then `O=C(CCN1CC(F)(F)C1)Nc1sc2c(c1-c1nc3cnccc3s1)CCNC2` [Compound 194], with 500 to 5000 nM.

Take `NC1CC(NCCC(=O)Nc2sc3c(c2-c2nc4cnccc4s2)CCNC3)C1` (stereo not shown) [Compound 195]: the half-maximal inhibitory concentration (IC50) was < 500 nM. The same measure, in the same setting: then `CC1(C#N)CN(CCC(=O)Nc2sc3c(c2-c2nc4cnccc4s2)CCNC3)C1` [Compound 196], with 500 to 5000 nM; and `CC(NCCC(=O)Nc1sc2c(c1-c1nc3cnccc3s1)CCNC2)c1nc2ccccc2[nH]1` (stereo not shown) [Compound 197], with 5000 to 25000 nM; and `O=C(CCN1CCn2nccc2C1)Nc1sc2c(c1-c1nc3cnccc3s1)CCNC2` [Compound 198], with 500 to 5000 nM. Same read-out and setting: the value for `Cc1cccc2c1CCN(CCC(=O)Nc1sc3c(c1-c1nc4cnccc4s1)CCNC3)C2` [Compound 199] was 500 to 5000 nM; that for `O=C(CCNCc1[nH]nc2c1CNC2)Nc1sc2c(c1-c1nc3cnccc3s1)CCNC2` [Compound 200] was < 500 nM; that for `CC(NCCC(=O)Nc1sc2c(c1-c1nc3cnccc3s1)CCNC2)c1ncc[nH]1` (stereo not shown) [Compound 201] was < 500 nM.

`NC(=O)C1(CNCCC(=O)Nc2sc3c(c2-c2nc4cnccc4s2)CCNC3)CCOCC1` [Compound 202]: the half-maximal inhibitory concentration (IC50) was < 500 nM. The same measure, in the same setting: then `O=C(CCN[C@H]1CC[C@@H](O)C1)Nc1sc2c(c1-c1nc3cnccc3s1)CCNC2` [Compound 204], with < 500 nM; and `CN(CCC(=O)Nc1sc2c(c1-c1nc3cnccc3s1)CCNC2)Cc1nc2ccccc2s1` [Compound 205], with 5000 to 25000 nM; and `O=C(CCNC[C@H]1CC2(CCNCC2)CO1)Nc1sc2c(c1-c1nc3cnccc3s1)CCNC2` [Compound 207], with < 500 nM. Still for that read-out and setting: then `O=C(CCN1CCC2OCCC2C1)Nc1sc2c(c1-c1nc3cnccc3s1)CCNC2` (stereo not shown) [Compound 208], with < 500 nM; and `O=C(CCNCc1noc2c1CNCC2)Nc1sc2c(c1-c1nc3cnccc3s1)CCNC2` [Compound 209], with 500 to 5000 nM. As for `O=C(CCNCC1(O)CC1)Nc1sc2c(c1-c1nc3cnccc3s1)CCNC2` [Compound 210], the IC50 was < 500 nM. In the case of `O=C(CCN[C@H]1[C@@H]2CNC[C@@H]21)Nc1sc2c(c1-c1nc3cnccc3s1)CCNC2` [Compound 211], the IC50 is < 500 nM. Still for that read-out and setting: then `O=C(CCNCc1cnc2ccccn12)Nc1sc2c(c1-c1nc3cnccc3s1)CCNC2` [Compound 212], with 5000 to 25000 nM; and `O=C(CCN1CCC2COCC2C1)Nc1sc2c(c1-c1nc3cnccc3s1)CCNC2` (stereo not shown) [Compound 213], with < 500 nM. On the same count and under the same terms, then `CN(CCC(=O)Nc1sc2c(c1-c1nc3cnccc3s1)CCNC2)Cc1ccc2[nH]ccc2c1` [Compound 214], with < 500 nM.

For the compound `O=C(CCNCc1ncc[nH]1)Nc1sc2c(c1-c1nc3cnccc3s1)CCNC2` [Compound 215], the concentration for half-maximal inhibition (IC50) is < 500 nM. Same read-out and setting: then `O=C(CCNC1CC1)Nc1sc2c(c1-c1nc3cnccc3s1)CCNC2` [Compound 221, 3-(cyclopropylamino)-N-(3-(thiazolo[4,5-c]pyridin-2-yl)-4,5,6,7-tetrahydrothieno[2,3-c]pyridin-2-yl)propanamide], with < 500 nM. For the compound `O=C(CCNC1CCC1)Nc1sc2c(c1-c1nc3cnccc3s1)CCNC2` [Compound 222, 3-(cyclobutylamino)-N-(3-(thiazolo[4,5-c]pyridin-2-yl)-4,5,6,7-tetrahydrothieno[2,3-c]pyridin-2-yl)propanamide], the IC50 was < 500 nM. As to `CCN1CCc2c(sc(NC(C)=O)c2-c2nc3cnccc3s2)[C@H]1C` [Compound 229, (R)—N-(6-ethyl-7-methyl-3-(thiazolo[4,5-c]pyridin-2-yl)-4,5,6,7-tetrahydrothieno[2,3-c]pyridin-2-yl)acetamide], the concentration for half-maximal inhibition (IC50) lay in the range of 5000 to 25000 nM.

For the compound `COCCNCCC(=O)Nc1sc2c(c1-c1nc3cncnc3s1)CCNC2` [Compound 252], the IC50 was > 25000 nM.

Regarding `CCN1[C@H](C)c2sc(NC(C)=O)c(-c3nc4cnccc4s3)c2C[C@@H]1C` [Compound 253], the IC50 is < 500 nM. Consider `CCN1[C@H](C)Cc2c(sc(NC(C)=O)c2-c2nc3cnccc3s2)[C@@H]1C` [Compound 254], for which the IC50 is > 25000 nM.

The subject of another test is human small lung cancer cell line H2171. As to the kind of experiment: Cell Viability Assay (ATPlite). Type of test: cell-based. The settings on record: NCI-H2171, 72 h, H2171 cells, incubated for three days, ATPlite readout. The method, then: Compounds of the invention were assayed for cell viability using the human small lung cancer cell line H2171 as described in the following protocol. Cells were counted and adjusted to 20,000 cells/mL. Using a Biotek EL406, 50 μL of cells in media were distributed into 384 well white plates from Thermo. Immediately after plating, compound in DMSO was distributed to plates. Compounds were added to plates using a 50 nL 384 well pin transfer manifold on a Janus workstation. Stocks were arrayed in 10 point dose response in DMSO stock in 384 well Greiner compound plates. After the addition of compounds, plates were incubated for three days in a 37° C. incubator. Cell viability was read out using ATPlite from Perkin Elmer. Lyophilized powder was resuspended in lysis buffer and diluted 1:2 with deionized water. 25 μL of this solution was added to each well using the Biotek liquid handler. Plates were incubated for 15 minutes at room temperature before signal was read on an Envision Plate Reader. The data from this assay are summarized in Table 3 below (H2171 activity).
(In general: ATP-based viability assays read luminescence as a measure of living cells.)
On to `CC(=O)Nc1sc2c(c1-c1nc3cnccc3s1)C[C@@H](C)N[C@@H]2C` (single isomer, unassigned) [Compound 110], for which the IC50 was < 500 nM. For `CC(=O)Nc1sc2c(c1-c1nc3cnccc3s1)C[C@H](C)N[C@H]2C` (single isomer, unassigned) [Compound 111], the 50% inhibitory concentration (IC50) was < 500 nM. Same read-out and setting: the value for `CC(=O)Nc1sc2c(c1-c1nc3cnccc3s1)C[C@H](C)N[C@@H]2C` [Compound 236] was < 500 nM.
